Data: publication PMC11809180, “RA-PR058, a novel ramalin derivative, reduces BACE1 expression and phosphorylation of tau in Alzheimer’s disease mouse models” (Animal Cells and Systems, 2025)
Where two headings read alike, the source gives them in different places.

Columns and labels:
[1] = system: JNK; test: JNK phosphorylation in cortex of 3xTg-AD mice (western blot); type: in vivo, mouse; details: 20 mg/kg oral daily 4 weeks, p-JNK normalized with JNK
Experimental: 3xTg-AD (B6;129-Tg(APPSwe,tauP301L)1Lfa Psen1^tm1Mpm/Mmjax) mice and their littermate wild-type (WT) mice were used in this study. Each experimental group consisted of 4–8 mice, with groups designated as WT, 3xTg-AD Vehicle, and 3xTg-AD RA-PR058. All mice were maintained in a 12-hour light/dark cycle with free access to food and water. 7-month-old age of mice were administered with 20 mg/kg of RA-PR058 orally once a day for 1 month followed by the elevated plus maze test. All animal experimental procedures were approved by the Institutional Animal Care and Use Committee of Sungkyunkwan University (SKKUIACUC2022-10-41-1).
After EPM was conducted, mice were sacrificed, and brain tissues were collected as previously described (Park et al. [2021]). Mice were anesthetized by injecting Zoletil (Virbac) and Rompun (Bayer) intraperitoneally. After mice were anesthetized, they were perfused with phosphate-buffered saline (PBS). Then, brains were extracted and cut into two hemispheres; one hemisphere was preserved in 4% paraformaldehyde and the other was dissected into the cortex and hippocampus. […]
Samples for western blot analysis were prepared as previously described (Gwon et al. [2012]). […] Protein concentrations were measured using Pierce™ BCA Protein Assay Kits (Thermo Fisher Scientific). […] Protein bands were quantified using ImageJ (NIH).

[2] = system: cytochrome P450 (CYP) isoforms (CYP1A2, CYP2C9, CYP2C19, CYP2D6, and CYP3A); test: Cytochrome P450 inhibition assay in human liver microsomes; type: in vitro ADME; details: 10 μM RA-PR058, 20 minutes 37 ℃, with NADPH regenerating system
Experimental: Inhibitory potentials of RA-PR058 on cytochrome P450 (CYP) isoforms (CYP1A2, CYP2C9, CYP2C19, CYP2D6, and CYP3A) were evaluated. This assay was conducted by SPMED Co., Ltd (Republic of Korea). Human liver microsomes were incubated at 37 ℃ for 20 minutes with phosphate buffer (pH 7.4), each CYP substrate (for CYP1A2: phenacetin, CYP2C9: diclofenac, CYP2C19: S-mephenytoin, CYP2D6: dextromethorphan, CYP3A: midazolam), and 10 μM of RA-PR058 in the presence of an NADPH regenerating system. The reaction was terminated by adding an acetonitrile solution containing an internal standard. Following reaction termination, samples were centrifuged, and the supernatant was injected into an LC-MS/MS system to analyze the metabolites of each substrate drug.

[3] = Microsomal stability; type: in vitro ADME; details: human, mouse, rat, dog, monkey, liver microsomes, 30 minutes 37 ℃, with and without NADPH, across all microsomes tested
Experimental: The metabolic stability of RA-PR058 was evaluated using liver microsomes from humans and various animal species at 37 ℃. This assay was carried out by SPMED Co., Ltd (Republic of Korea). The test was initiated by adding the 1 μM of RA-PR058 to liver microsomes in the presence or absence of an NADPH regenerating system. After incubation at 37 ℃ for 30 minutes, acetonitrile containing an internal standard was added to each sample to terminate the reaction. Samples were then centrifuged, and the supernatant was analyzed by LC-MS.

[4] = Plasma and brain pharmacokinetics after oral administration; type: in vivo; details: Sprague-Dawley, rat, 10 mg/kg oral, S.D. rats; for AUC(0-t): read-out: AUC0-7h
Experimental: Pharmacokinetic assays were conducted by NeuroVis (Republic of Korea). 10 mg/kg of RA-PR058 was administered to Sprague–Dawley rats by either oral administration route or intravenous injection route. Blood sampling was conducted using the BASi Culex ABS system. After cannulation, catheters were inserted into the jugular vein and the carotid artery of the rats, with the system programmed to collect 200 μL samples. Collected blood samples were centrifuged at 12,000 x rpm for 10 minutes to separate plasma, which was then immediately stored at −80 ℃. For brain pharmacokinetics, 10 mg/kg of RA-PR058 was administered orally to Sprague–Dawley rats, followed by collection of both blood and brain tissue. After collection, samples were mixed with the internal standard, ofloxacin, and centrifuged at 13,000 x rpm for 5 minutes at 4 ℃. The resulting supernatants were then combined with 50% methanol and analyzed by LC-MS/MS.

## Cl.N[C@@H](CCC(=O)NNc1ccccc1F)C(F)F [RA-PR058, (S)-4-amino-5,5-difluoro-N'-(2-fluorophenyl)pentanehydrazide hydrochloride]
[1]
  JNK phosphorylation: significantly downregulated
[2]
  Decrease in mean control activity of CYP isoforms: 12%
[3]
  remaining at 0.5 h, 1 μM: > 90%
[4]; brain and plasma, read-out: Brain-to-plasma AUC ratio (AUC0–7h)
  Kp: 0.916
[4]; Brain
  Cmax: 3190 ng/mL
  half-life: 1.57 h
  AUC(0-t): 6090 ng·h/mL
[4]; Plasma
  Cmax: 3900 ng/mL
  half-life: 1.06 h
  AUC(0-t): 5700 ng·h/mL
